From patent publication US20110177014A1, “EXTRACTS FROM PLANTS OF THE TSUGA GENUS AND USES THEREOF IN THE TREATMENT OF INFLAMMATION, IRRITATION AND/OR INFECTION” (BIOPHARMACOPAE DESIGN INTERNATIONAL INC., priority 2008, published 2011)

How the values were obtained:
Assay type in all cases: cell-based
HUVECs = assay: Cord formation assay on Matrigel (angiogenesis); conditions: Homo sapiens, HUVEC
Protocol: 60 μl Matrigel® was added to a 96-well plate flat bottom plate (Costar 3096) and incubated for 30 minutes at 37° C. in a 5% CO2 atmosphere. A mixture of HUVECs and Tsuga extract, or a positive control (Fumagillin or GM6001) were added to each well. HUVECs were prepared as suspensions of 2.5×10^5 cells per ml in EGM-2, then 500 μl of HUVECs preparation was mixed with 500 μl of 2× of the desired dilution of Tsuga extract or control drug and 200 μl were added to each well. Four dilutions of each extract were tested in duplicate. After 18-24 hours at 37° C. in 5% CO2, the cells had migrated and organized into cords. The number of cell junctions was counted in 3 randomly selected fields and the inhibition of cord formation is calculated as follows: [(A−B)/A]×100, where A is the average number of cell junctions per field in the control well and B is the average number of cell junctions per field in the treated wells.

human skin fibroblasts = assay: Inhibition of contractile force of fibroblasts in collagen I gel; conditions: Skin fibroblast, read-out: inhibition of tractional force of fibroblasts
From the text: The skin model comprises human skin fibroblasts imbedded in a collagen I matrix and provides an in vitro representation of dermal contraction resulting from tractional forces generated by fibroblasts. Partial or permanent dermal contraction can play a role in the formation of wrinkles. Thus, extracts capable of inhibiting the contractile force of fibroblasts, have the potential to provide a dermo-decontraction anti-ageing effect in the skin.
The ability of the Tsuga extracts to inhibit the contractile force of fibroblasts was evaluated on human skin fibroblasts (Cascade Biologics, Portland, Oreg.). The cells were imbedded in a collagen I matrix to create a derm-like environment. Fibroblasts were grown in complete M106 to 80% confluence. Free-floating fibroblast-populated collagen gels were prepared in 24-well plates. 500 μl of gel contains 2.5 mg/ml of collagen I (rat tail, BD Biosciences, Bedford, Mass.), M106 5X, NaOH 0.7N; 1×10^5 cells and fetal bovine serum (FBS) at 20% (Wisent, St-Bruno, QC, Canada). The mix was kept on ice until distribution. The derm-like gels were allowed to polymerize for 1 hour at 37° C. in a humidified 5% CO2 atmosphere. After incubation, the gels were detached from the wells. […] Contraction was measured beginning at day 5. Contracting gels were digitally photographed and the gel areas were calculated using ImagePro software.

human skin keratinocytes [1] = assay: IL-8 release from keratinocytes (irritation potential), ELISA; conditions: 5 μM; basal level 18 pg/ml
Protocol: This example provides results showing the non-irritating quality of the Tsuga extracts. The amount of interleukin-8 (IL-8) released in the following assay is used to quantify a possible irritating reaction after exposure of keratinocytes to the Tsuga extract.
Release of IL-8 was evaluated on human skin keratinocytes (Cascade Biologics, Portland, Oreg., catalog number C-005) and measured using the Quantikine hIL8 ELISA kit (R&D Systems, Minneapolis, Minn., catalog number D8000C). Keratinocytes were first grown in a 96-well plate using complete medium M154 (M154+HKGS cat S-001 from Cascade Biologics). This medium was used as a negative (non-irritating) control, while 2.5 μM phorbol 12-myristate 13-acetate (PMA) (Sigma-Aldrich Canada, Oakville, Ontario) was used as a positive (irritating) control. All extracts and controls were diluted in complete medium M154. Cells were seeded into 96-well plates at a concentration of 8×10^3 cells/well in complete M154 medium and plates were incubated for 48 hours at 37° C. in a humidified 5% CO2 atmosphere. The medium was removed and 200 μl of Tsuga extract or control were added to the wells (all performed in duplicate) and then the plates were incubated for 48 hours at 37° C. in a humidified 5% CO2 atmosphere. […] The absorbance was read at 450 nm on the Spectrafluor Plus plate reader (Tecan). […]

human skin keratinocytes [2] = assay: UVA-induced IL-1 release in keratinocytes, ELISA; conditions: UVA 20 J/cm^2
Protocol: This example provides results showing the anti-inflammatory effect of Tsuga extracts when inflammation is induced in keratinocytes. The amount of interleukin-1 alpha (IL-1) released is used to quantify the inflammatory reaction after exposure of the keratinocytes to UVA light irradiation. IL-1 release was evaluated in human skin keratinocytes (Cascade Biologics, Portland, Oreg.) and was measured using the Quantikine hIL1 ELISA kit (R&D Systems, Minneapolis, Minn.). Keratinocytes were first grown in a 96-well plate using complete […] medium with different concentrations of extracts for 48 hours at 37° C. in a humidified 5% CO2 atmosphere. All extracts and controls were diluted in complete […] medium. Cells were rinsed with HBSS and irradiated with UVA at 20 J/cm^2. HBSS was removed and complete […] medium containing controls or extracts was added to respective wells. Plates were incubated for another 24 hours. ELISA was performed following the manufacturer's recommendations (R&D Systems). The absorbance was read at 450 nm on the Spectrafluor Plus plate reader (Tecan). […] The inhibition of IL-1 release is proportional to the anti-inflammatory effect.

## CO[C@@H]1[C@H](OC(=O)/C=C/C=C/C=C/C=C/C(=O)O)CC[C@]2(CO2)[C@H]1[C@@]1(C)O[C@@H]1CC=C(C)C [Fumagillin]
HUVECs; 15 μg/ml
  inhibition at 15 µg/mL: 100%

## CNC(=O)[C@H](Cc1c[nH]c2ccccc12)NC(=O)[C@@H](CC(=O)NO)CC(C)C [GM6001]
HUVECs; 25 μM
  inhibition at 25 µM: 78%
Human skin fibroblasts
  inhibition at 50 µM: 85%

## CCCCCCCCCCCCCC(=O)O[C@@H]1[C@@H](C)[C@@]2(O)[C@@H](C=C(CO)C[C@]3(O)C(=O)C(C)=C[C@@H]23)[C@@H]2C(C)(C)[C@]12OC(C)=O [PMA, phorbol 12-myristate 13-acetate]
Human skin keratinocytes [1]
  IL-8 release: 282 pg/mL

## O=C(O)c1ccccc1O [salicylic acid]
Human skin keratinocytes [2]; 0.025%
  inhibition of IL-1 release: 11%
Human skin keratinocytes [2]; 0.05%
  inhibition of IL-1 release: 27%
